The results in this text go back to US20260183274A1, “PDK1 REGULATORY COMPOUND AND COMPOSITION CONTAINING THE SAME” (PROVIBIO CO., LTD., priority 2024, published 2026).

In the assay the test system is T cells isolated from mouse spleens. Put plainly: T cell proliferation inhibition (CFSE flow cytometry, anti-CD3/anti-CD28 stimulation). The class given is cell-based. To be noted: mouse spleen T cells, 3 days; for inhibition at 0.01 µM / inhibition at 0.1 µM / inhibition at 1 µM / inhibition at 10 µM / inhibition at 30 µM / inhibition at 50 µM: Mus musculus, T-cell, 72 h, read-out: Proliferation inhibition rate (%). As to the method:
To verify the T cell proliferation inhibitory effect of the compounds according to the present invention, the following experiment was performed based on flow cytometry analysis using carboxyfluorescein diacetate succinimidyl ester (CFSE), a fluorescent dye that binds to intracellular molecules via covalent bonds.
Spleens were extracted from 7-week-old C57BL/6 mice, ground, and then separated into single cells using a strainer (40 μm pore size, SPL). Red blood cells were removed using ACK (Ammonium-Chloride-Potassium) lysis buffer to isolate white blood cells.
Finally, using a MACS Magnetic Stand and LS column, T cells were isolated from the spleen.
The T cells isolated from the spleen were resuspended in 1 mL of free medium (RPMI-1640+200 U/mL penicillin+200 μg/mL streptomycin), and 0.3 μL of CFSE (10 mM) was added. The mixture was incubated at 37° C. for 5 minutes.
Free medium (10 mL) was added to stop the reaction, and the cells were centrifuged to obtain the cell pellet.
RPMI 1640 medium containing 10% FBS, 100 U/mL penicillin, 100 μg/mL streptomycin, and resuspended the cells. The cells were then seeded into a 96-well plate at a density of 2×10^5 cells per well and activated with CD3 and CD28 antibodies (0.5 μg/mL each) to activate T cells.
The compound diluted in DMSO was added at concentrations of 10 nM, 100 nM, 1 μM, 10 μM, 30 μM, and 50 μM, with three wells per concentration, and cultured at 37° C. and 5% CO2 for three days. The cells were then analyzed using a FACS Canto instrument.
The proliferation inhibition rate (%) was calculated using the following formula: […]
(In general: A flow cytometer gives signals particle by particle.)

Consider `COC(=O)C1CCN(CCCCCCCCCCCCNC(=O)c2cccnc2N)CC1` [Compound 93, methyl 1-(12-(2-aminonicotinamido)dodecyl)piperidine-4-carboxylate], for which, where the note is “compound 10 nM”, the inhibition at 0.01 µM was -12.9%. Moreover, the inhibition at 0.1 µM (compound 100 nM) turned out to be 100%. The inhibition at 1 µM (compound 1 μM) worked out at 100%. Further, the inhibition at 10 µM (compound 10 μM) was 100%. Besides, the inhibition at 30 µM (compound 30 μM) came to 100%. Also, the inhibition at 50 µM (compound 50 μM) is 100%.
Regarding `CCOC(=O)C1CCN(CCCCCCCCCCCCNC(=O)c2cccnc2N)CC1` [Compound 103, Ethyl 1-(12-(2-aminonicotinamido)dodecyl)piperidine-4-carboxylate], the inhibition at 0.01 µM (compound 10 nM) is -6.43%. Also, the inhibition at 0.1 µM (compound 100 nM) is 100%. In addition, for the setting “compound 1 μM”, the inhibition at 1 µM came out at 100%. The inhibition at 10 µM (compound 10 μM) was 100%. Also, the inhibition at 30 µM (compound 30 μM) turned out to be 100%. The inhibition at 50 µM (compound 50 μM) stood at 100%.
With `CN1CCN(CCCCCCCCCCCCNC(=O)c2ccccc2Cc2ccccc2)CC1` [Compound 196, 2-Benzyl-N-(12-(4-methylpiperazin-1-yl)dodecyl)benzamide], where the note is “compound 10 nM”, the inhibition at 0.01 µM turned out to be 5.21%. The inhibition at 0.1 µM (compound 100 nM) turned out to be 4.05%. The inhibition at 1 µM (compound 1 μM) stood at 12.3%. The inhibition at 10 µM (compound 10 μM) stood at 100%. For the setting “compound 30 μM”, the inhibition at 30 µM worked out at 100%. Further, the inhibition at 50 µM (compound 50 μM) stood at 100%.
As to `O=C(NCCCCCCCCCCCCF)c1cnccc1Cl` [Compound 60, 4-Chloro-N-(12-fluoro-dodecyl)-nicotinamide], the inhibition at 0.01 µM (compound 10 nM) was -1.92%. The inhibition at 0.1 µM (compound 100 nM) is 8.77%. Further, the inhibition at 1 µM (compound 1 μM) was 6.85%. Also, the inhibition at 10 µM (compound 10 μM) turned out to be 63.5%. The inhibition at 30 µM (compound 30 μM) worked out at 100%. Where the note is “compound 50 μM”, the inhibition at 50 µM worked out at 100%.
As to `Cc1c(Cl)cccc1C(=O)NCCCCCCCCCCCCN1CCN(C)CC1` [Compound 219, 3-Chloro-2-methyl-N-(12-(4-methylpiperazin-1-yl)dodecyl)benzamide], the inhibition at 0.01 µM (compound 10 nM) is -5.37%. The inhibition at 0.1 µM (compound 100 nM) was determined as 2.18%. The inhibition at 1 µM (compound 1 μM) was 3.48%. Besides, the inhibition at 10 µM (compound 10 μM) was 66.5%. For the same compound, the inhibition at 30 µM (compound 30 μM) was 100%. The inhibition at 50 µM (compound 50 μM) is 100%.
Take `Cc1nn(CCCCCCCCCCCCNC(=O)c2cccnc2N)cc1Br` [Compound 105, 2-Amino-N-(12-(4-bromo-3-methyl-1H-pyrazol-1-yl)dodecyl)nicotinamide]: the inhibition at 0.01 µM (compound 10 nM) was 6.73%. For the same compound, the inhibition at 0.1 µM (compound 100 nM) was 8.33%. Besides, the inhibition at 1 µM (compound 1 μM) was 38.9%. The inhibition at 10 µM (compound 10 μM) is 100%. In addition, the inhibition at 30 µM (compound 30 μM) came to 100%. Further, under “compound 50 μM”, the inhibition at 50 µM came out at 100%.
For the compound `Nc1ncccc1C(=O)NCCCCCCCCCCCCN1CCC(F)(F)CC1` [Compound 114, 2-amino-N-(12-(4,4-difluoropiperidin-1-yl)dodecyl)nicotinamide], the inhibition at 0.01 µM (compound 10 nM) is -18.3%. Moreover, the inhibition at 0.1 µM (compound 100 nM) turned out to be 26.2%. The inhibition at 1 µM (compound 1 μM) was found to be 100%. Also, the inhibition at 10 µM (compound 10 μM) was found to be 100%. Moreover, the inhibition at 30 µM (compound 30 μM) was found to be 100%. Also, the inhibition at 50 µM (compound 50 μM) came out at 100%.
As to `CN1CCN(CCCCCCCCCCCCNC(=O)c2ccnc(-c3ccccn3)c2)CC1` [Compound 195, N-(12-(4-methylpiperazin-1-yl)dodecyl)-[2,2′-bipyridine]-4-carboxamide], the inhibition at 0.01 µM (compound 10 nM) is 1.77%. The inhibition at 0.1 µM (compound 100 nM) came to 2.81%. Also, the inhibition at 1 µM (compound 1 μM) was -7.83%. Moreover, the inhibition at 10 µM (compound 10 μM) came to 100%. Also, the inhibition at 30 µM (compound 30 μM) was found to be 100%. For the same compound, the inhibition at 50 µM (compound 50 μM) came to 100%.
Turning to `CN1CCN(CCCCCCCCCCCCNC(=O)c2ccccc2-n2cccc2)CC1` [Compound 193, N-(12-(4-methylpiperazin-1-yl)dodecyl)-2-(1H-pyrrol-1-yl)benzamide], under “compound 10 nM”, the inhibition at 0.01 µM amounted to 5.02%. Besides, the inhibition at 0.1 µM (compound 100 nM) worked out at 4.87%. The inhibition at 1 µM (compound 1 μM) is 12%. Also, the inhibition at 10 µM (compound 10 μM) is 100%. Also, the inhibition at 30 µM (compound 30 μM) was 100%. For the same compound, where the note is “compound 50 μM”, the inhibition at 50 µM turned out to be 100%.
As to `CCOC(=O)C1CCCN(CCCCCCCCCCCCNC(=O)c2cccnc2N)C1` (stereo not drawn) [Compound 92, ethyl 1-(12-(2-aminonicotinamido)dodecyl)piperidine-3-carboxylate], the inhibition at 0.01 µM (compound 10 nM) was -9.65%. Also, the inhibition at 0.1 µM (compound 100 nM) was 100%. Moreover, the inhibition at 1 µM (compound 1 μM) came out at 100%. The inhibition at 10 µM (compound 10 μM) was determined as 100%. In addition, the inhibition at 30 µM (compound 30 μM) stood at 100%. Further, the inhibition at 50 µM (compound 50 μM) was found to be 100%.
As for `O=C(NCCCCCCCCCCCCF)c1ccncc1I` [Compound 76, N-(12-fluoro-dodecyl)-3-iodo-isonicotinamide], the inhibition at 0.01 µM (compound 10 nM) came to 0%. For the same compound, the inhibition at 0.1 µM (compound 100 nM) was 0%. Further, the inhibition at 1 µM (compound 1 μM) turned out to be 0%. For the same compound, under “compound 10 μM”, the inhibition at 10 µM was -4.95%. Also, the inhibition at 30 µM (compound 30 μM) was 23.7%. The inhibition at 50 µM (compound 50 μM) was found to be 97.8%.
For the compound `COC(=O)C1CCN(CCCCCCCCCCCCNC(=O)c2cccnc2N)C1` (stereo not drawn) [Compound 116, Methyl-1-(12-(2-aminonicotinamido)dodecyl) pyrrolidine-3-carboxylate], the “Proliferation inhibition rate (%)” value was −1.90% (compound 10 nM); 26.17% (compound 100 nM); 100.00% (compound 1 μM); 100.00% (compound 10 μM); 100.00% (compound 30 μM); 100.00% (compound 50 μM).
`CC(C)(C)OC(=O)N1CCN(CCCCCCCCCCCCNC(=O)c2cccnc2N)CC1` [Compound 111, tert-butyl-4-(12-(2-aminonicotinamido)dodecyl) piperazine-1-carboxylate]: the “Proliferation inhibition rate (%)” value (compound 10 nM) was 0.00%; the “Proliferation inhibition rate (%)” value (compound 100 nM) amounted to 100.00%; the “Proliferation inhibition rate (%)” value (compound 1 μM) is recorded as 100.00%; the “Proliferation inhibition rate (%)” value (compound 10 μM) is 100.00%; the “Proliferation inhibition rate (%)” value (compound 30 μM) was 100.00%; the “Proliferation inhibition rate (%)” value (compound 50 μM) is listed as 100.00%.
With `CN1CCN(CCCCCCCCCCCCNC(=O)c2ccccc2-c2ccccc2)CC1` [Compound 194, N-(12-(4-methylpiperazin-1-yl)dodecyl)-[1,1′-biphenyl]-2-carboxamide], the inhibition at 0.01 µM (compound 10 nM) was -4.09%. Besides, the inhibition at 0.1 µM (compound 100 nM) is -2.4%. The inhibition at 1 µM (compound 1 μM) was -1.68%. Besides, under “compound 10 μM”, the inhibition at 10 µM came out at 100%. Moreover, the inhibition at 30 µM (compound 30 μM) was 100%. Moreover, the inhibition at 50 µM (compound 50 μM) was 100%.
Take `CN(CCCCCCCCCCCCNC(=O)c1cccnc1N)C1CCCCC1` [Compound 34, 2-Amino-N-(12-(cyclohexyl(methyl)amino)dodecyl) nicotinamide]: the “Proliferation inhibition rate (%)” value is, setting by setting: (compound 10 nM) 2.08%; (compound 100 nM) 100.00%; (compound 1 μM) 100.00%; (compound 10 μM) 100.00%; (compound 30 μM) 100.00%; (compound 50 μM) 100.00%.
With `O=C(NCCCCCCCCCCCCF)c1cccnc1Br` [Compound 58, 2-Bromo-N-(12-fluoro-dodecyl)-nicotinamide], the inhibition at 0.01 µM (compound 10 nM) is -4.38%. In addition, where the note is “compound 100 nM”, the inhibition at 0.1 µM stood at 1.78%. In addition, the inhibition at 1 µM (compound 1 μM) turned out to be 1.92%. Also, the inhibition at 10 µM (compound 10 μM) stood at 20%. Under “compound 30 μM”, the inhibition at 30 µM was 78.9%. In addition, the inhibition at 50 µM (compound 50 μM) is 95.8%.
Take `C[C@@H](C(=O)O)N(C=O)CCCCCCCCCCCCNC(=O)c1cccnc1N` [Compound 130, N-(12-(2-aminonicotinamido)dodecyl)-N-formylalanine]: the inhibition at 0.01 µM (compound 10 nM) was -4.33%. Besides, where the note is “compound 100 nM”, the inhibition at 0.1 µM is -5.22%. Also, the inhibition at 1 µM (compound 1 μM) was found to be 13.6%. Besides, where the note is “compound 10 μM”, the inhibition at 10 µM was 85.4%. Under “compound 30 μM”, the inhibition at 30 µM turned out to be 100%. Besides, the inhibition at 50 µM (compound 50 μM) is 100%.
Consider `Nc1ncccc1C(=O)NCCCCCCCCCCCCN1CCC2CCCCC2C1` (stereo not drawn) [Compound 16, 2-Amino-N-(12-(octahydroisoquinolin-2 (1H)-yl)dodecyl) nicotinamide], for which the “Proliferation inhibition rate (%)” value runs as follows: (compound 10 nM) 4.13%; (compound 100 nM) −2.93%; (compound 1 μM) 100.00%; (compound 10 μM) 100.00%; (compound 30 μM) 100.00%; (compound 50 μM) 100.00%.
